Source: PubChem BioAssay (NCI)
“And” between values parts separate entries of the source, which are not always exact repeats. Identical values can stand only once.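 Exposure lasted 48 hours, with cells grown in 96-well plates and compounds tested at five concentrations. Here, GI50 denotes the concentration required for 50% inhibition of growth. TGI: concentration producing complete growth inhibition.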

Tests used:
Test in all cases: NCI anticancer screen, dose series, 48 h
COLO 205 colon = tested on: COLO 205 colon
UO-31 renal = tested on: UO-31 renal
K-562 leukemia = tested on: K-562 leukemia
M14 melanoma = tested on: M14 melanoma
786-0 renal = tested on: 786-0 renal
MALME-3M melanoma = tested on: MALME-3M melanoma
SNB-75 CNS = tested on: SNB-75 CNS
A498 renal = tested on: A498 renal
IGROV1 ovarian = tested on: IGROV1 ovarian
SF-295 CNS = tested on: SF-295 CNS

SMILES	GI50 (COLO 205 colon)	TGI (COLO 205 colon)	GI50 (UO-31 renal)	TGI (UO-31 renal)	GI50 (K-562 leukemia)	TGI (K-562 leukemia)	GI50 (M14 melanoma)	TGI (M14 melanoma)	GI50 (786-0 renal)	TGI (786-0 renal)	GI50 (MALME-3M melanoma)	TGI (MALME-3M melanoma)	GI50 (SNB-75 CNS)	TGI (SNB-75 CNS)	GI50 (A498 renal)	TGI (A498 renal)	GI50 (IGROV1 ovarian)	TGI (IGROV1 ovarian)	GI50 (SF-295 CNS)	TGI (SF-295 CNS)
CCOc1ccc(/C=C/C(=O)c2ccccc2)cc1	18 µM	32.4 µM	14.1 µM	28 µM	8.05 µM	80.8 µM	18.8 µM	38.9 µM	20.6 µM	39.1 µM	17.9 µM	35.2 µM	22.4 µM	51.4 µM	16.2 µM	33.2 µM	16.3 µM	39.7 µM	16.8 µM	35 µM
CC1(C)C(=O)N(c2ccccc2)C(=O)N1c1nc2ccccc2[nH]1	–	> 100 µM	–	> 100 µM	–	> 100 µM	–	> 100 µM	–	> 100 µM	–	> 100 µM	–	> 100 µM	–	> 100 µM	–	> 100 µM	–	> 100 µM
COc1cc(OC2OC(C)C(O)C(O)C2O)cc2oc(-c3ccc(O)cc3)c(CC=C(C)C)c(=O)c12 (centres undefined)	10 µM	22.1 µM	16.2 µM	64.6 µM	7.91 µM	27.9 µM	19.2 µM	39.8 µM	11.7 µM	60 µM	15.5 µM	55.5 µM	1.69 µM	17.5 µM	29.8 µM	84.2 µM	12.9 µM	51.9 µM	33.9 µM	> 100 µM
CCOc1ccccc1NC(=O)/C=C1\NC(=O)CS1	–	> 100 µM	–	> 100 µM	–	> 100 µM	–	> 100 µM	–	> 100 µM	–	> 100 µM	–	98.7 µM	–	> 100 µM	–	> 100 µM	–	> 100 µM
CCN(CC)c1ccc(N=Nc2ccc(-c3nc4cccnc4o3)cc2)cc1	–	> 100 µM	–	> 100 µM	–	> 100 µM	–	> 100 µM	–	> 100 µM	–	> 100 µM	–	> 100 µM	–	> 100 µM	–	> 100 µM	–	> 100 µM
c1ccc2c(c1)[I+]c1ccccc1-2	> 50 µM	> 50 µM	> 50 µM	> 50 µM	28.2 µM	> 50 µM	–	–	> 50 µM	> 50 µM	> 50 µM	> 50 µM	8.95 µM	> 50 µM	27.7 µM	> 50 µM	> 50 µM	> 50 µM	35 µM	> 50 µM
O=[N+]([O-])c1ccc2[nH]cc(-c3c4ccsc4cc4[nH]c5ccc([N+](=O)[O-])cc5c34)c2c1	0.796 µM	2.42 µM	0.827 µM	5.14 µM	0.664 µM	12.3 µM	0.527 µM	1.39 µM	0.877 µM	3.52 µM	0.898 µM	9.44 µM	0.618 µM	3.03 µM	0.726 µM	3.13 µM	1.65 µM	8.52 µM	0.629 µM	3.09 µM
C[CH2][Sn]1([CH2]C)[O]C(=O)[O][Sn]([CH2]C)([CH2]C)[O]1	> 41.1 µM	> 57.1 µM	45.8 µM	> 100 µM	13.7 µM	78.1 µM	18.8 µM	33.1 µM	17.6 µM	32 µM	16 µM	29.9 µM	> 63.8 µM	> 86.7 µM	17.7 µM	32.1 µM	> 57.6 µM	> 87.8 µM	19.4 µM	34.7 µM
Cc1ccc(C(=O)c2oc3ccc4c(C)cc(=O)oc4c3c2C)cc1	4.66 µM	> 100 µM	11.4 µM	> 100 µM	5.53 µM	> 100 µM	–	–	5.96 µM	> 100 µM	25.7 µM	> 100 µM	4.19 µM	39.4 µM	10.1 µM	> 100 µM	13.8 µM	> 100 µM	2.19 µM	30.2 µM
Nc1nc(-c2cccc([N+](=O)[O-])c2)c(Br)c(=O)[nH]1	–	> 100 µM	–	> 100 µM	–	> 100 µM	–	> 64.2 µM	–	> 100 µM	–	–	–	> 100 µM	–	> 100 µM	–	> 100 µM	–	> 66.6 µM
Oc1ccc(Br)cc1Sc1cc(Br)ccc1O	17.8 µM	34.9 µM	5 µM	19.6 µM	5.12 µM	32 µM	10.7 µM	27.9 µM	18.6 µM	35.4 µM	–	–	4.29 µM	19.7 µM	15.5 µM	31.1 µM	15.7 µM	36.3 µM	14.4 µM	33.5 µM
Oc1ccc(N=Nc2ccc(Cl)cc2)cc1	–	33.4 µM	–	27.7 µM	–	55.7 µM	–	23.3 µM	–	31.5 µM	–	–	–	46.1 µM	–	41 µM	–	29.3 µM	–	34.6 µM
O=c1ccn(C2OC(CO)C(O)C2O)c(=O)[nH]1 (centres undefined)	> 1000 µM	> 1000 µM	–	–	> 1000 µM	> 1000 µM	–	> 1000 µM	> 1000 µM	> 1000 µM	740 µM and > 10 µM	> 1000 µM	789 µM and > 10 µM	> 1000 µM	–	> 1000 µM	> 1000 µM	> 1000 µM	> 1000 µM	> 1000 µM
CN(C)CCNc1nc2ccccc2c2c1c1c(n2Cc2ccccc2)-c2ccccc2C1=O	16.6 µM	65.3 µM	14.3 µM	35.4 µM	3.89 µM	21.2 µM	18.6 µM	40.7 µM	19.2 µM	38.3 µM	–	–	14.4 µM	28.9 µM	14.1 µM	28.9 µM	12.1 µM	49.5 µM	9.33 µM	24.9 µM
CC(=O)N/C(=C\c1ccc(/C=C(\NC(C)=O)c2nc3ccc(Cl)cc3[nH]2)cc1)c1nc2ccccc2[nH]1	–	> 100 µM	–	–	–	> 100 µM	–	> 100 µM	–	> 100 µM	–	> 100 µM	–	> 100 µM	–	> 100 µM	–	> 100 µM	–	–
